Measured values from US20240050447A1 (Propella Therapeutics, Inc., priority 2020, published 2024).
“And” between values parts separate entries of the source, which are not always exact repeats. Equal entries are not always repeated. Where two headings read alike, the source gives them in different places.

Columns and labels:
[1] = in vivo; conditions: Beagle, dog; for half-life: iv
Description: Nominal dose values and sampling times were used for calculations. For the purpose of PK calculations, any concentration reported as “BLQ” was set equal to zero.
Cmax and the corresponding Tmax values were determined by direct assessment of the concentration versus time data. All AUC calculations were performed using the linear trapezoidal rule.
As data permitted, the terminal elimination rate constant (lambda z, λz) was calculated.
To optimize the reliability of the identified terminal phase (λz), where possible, the data points used to define the λz were manually selected.
The AUCINF value was calculated as: AUClast+(Clast/λz). CL/F was calculated as: Dose per dosing interval/(AUCINF) and Vz/F was calculated as: Dose per dosing interval/(AUCINF*λz). Terminal t1/2 was calculated as: ln(2)/λz.
Mean plasma concentration versus time data are presented with standard deviation (SD) and percent coefficient of variation (CV %) and reported to three significant figures. PK parameter values are presented with mean, SD, and CV %. Individual Tmax values were reported to two significant figures, while all other values and descriptive statistics are reported to three significant figures.

[2] = in vivo; conditions: male, cynomolgus monkey, plasma
[3] = in vivo; conditions: male, rat, plasma
[4] = in vivo; conditions: male, beagle, dog, plasma; for AUC(0-inf): dogs
[5] = PK of single IM abiraterone decanoate (and oral abiraterone acetate) in chemically castrated monkeys (Example 10); conditions: abiraterone in plasma
[6] = dogs (N=3); Group 2: IM 77 mg/kg abiraterone isocaproate, 158 mg/ml in 90% corn oil/10% benzyl alcohol; plasma analyte = label; mean
[7] = male, rat, in vivo, im
Description: (§1) Several formulations were considered in the initial rat study.
(§2) The above formulations were administered to either rats or dogs as an IV injection or as IM injections to the hind leg(s) of each animal.

[8] = dog, in vivo
[9] = human
Excerpt: (§3) CL and Vss in man were predicted from CL and Vss in animals by an allometric approach. Vss=a·W^x where a is the intercept, W is bodyweight and x is the allometric exponent; then, log Vss=x·log W+log a (derived from a log-log plot of body weight versus Vss in the 3 species). […] The rate and extent of input was derived by deconvolution.

[10] = in vivo; conditions: rat, plasma, intramuscular, 90 mg/kg
Excerpt: (§4) Weighting was included, dependent on the pattern of residuals (residual Y versus predicted concentration or time) and precision of the estimated parameters. The appropriate model was selected based on: (i) visual inspection of the model fit to the data (ii) the lowest value of Akaike Information Criterion (AIC) and (iii) precision of the estimated parameters (CV). Systemic clearance (CL) and apparent volume of distribution (Vss) were derived from the exponential functions.
(§5) Deconvolution: The rate and extent of input from an intramuscular administration was simulated by deconvolution using WinNonlin Phoenix Version 8.2. Deconvolution is based on linear systems analysis and is defined by the convolution integral: G(t)=R(t)*H(t). G(t) is the measured plasma concentration profile after intramuscular dosing, H(t) is represented by the exponential function described in Section 3.2 and R(t), the rate of input from the IM depot over time, is derived by deconvolution of the above expression. The slope of the input rate versus time generates the input rate constant (Koi). Integration of input rate versus time generates the cumulative input function and an estimate of absolute bioavailability.

[11] = in vivo; conditions: dog, plasma, intramuscular
Excerpt: as §4, §5

[12] = in vivo; conditions: monkey, plasma, intramuscular, 90 mg/kg
Excerpt: as §4, §5

[13] = PK modelling and deconvolution of abiraterone plasma profiles, rats (Example 7D)
Excerpt: as §4, §5

[14] = PK modelling and deconvolution of abiraterone plasma profiles, dogs (Example 7D)
Excerpt: as §4, §5

[15] = PK modelling and deconvolution of abiraterone plasma profiles, monkeys (Example 7D)
Excerpt: as §4, §5

[16] = Allometric scaling and prediction of plasma profile of abiraterone in man (Example 7D)
Excerpt: as §3

[17] = Plasma PK in rats after IM injection of abiraterone or abiraterone acetate formulations (Example 5A); conditions: male, rat, group mean
Description: as §1, §2

[18] = single IM 10 mg/kg, Geometric Mean (N=3)
[19] = single IM 10 mg/kg, Median (N=3)
[20] = single IM 10 mg/kg, individual animals
[21] = single IM 30 mg/kg, Geometric Mean (N=3)
[22] = single IM 30 mg/kg, Median (N=3)
[23] = single IM 30 mg/kg, individual animals
[24] = single IM 100 mg/kg, Mean (N=3)
[25] = single IM 100 mg/kg, Median (N=3)
[26] = single IM 100 mg/kg, individual animals
[27] = Group 3: IM abiraterone suspension in castor oil (62.5 mg/ml)
[28] = Group 4: IM abiraterone suspension, sodium phosphate buffer, 0.1% Tween (62.5 mg/ml)

SMILES: CCCCCCCCCC(=O)O[C@H]1CC[C@@]2(C)C(=CC[C@@H]3[C@@H]2CC[C@]2(C)C(c4cccnc4)=CC[C@@H]32)C1 [Abiraterone Decanoate, Abiraterone decanoate]
- Tmax ([1]; im, mean decanoate Tmax, range between the two IM formulations): 2.64 to 6.24 h
- half-life ([1]; […]): 0.86 h
- half-life ([2]; im, 90 mg/kg): 240 h
- half-life ([2]; iv, […]): 2.27 h
- half-life ([3]; im, 90 mg/kg): 792 h
- half-life ([3]; iv, […]): 3.2 h
- CL/F ([4]; im, 87 mg/kg): 12.4 L/h/kg
- Vd/F ([4]; im, 87 mg/kg): 2850 L/kg
- half-life ([4]; im, 87 mg/kg): 161 h
- AUC0-t [5, 18]: 196 ng·days/mL
- AUC0-∞ [5, 18]: 209 ng·days/mL
- AUC0-t ([5]; single IM 10 mg/kg, Max (N=3)): 225 ng·days/mL
- AUC0-∞ ([5]; single IM 10 mg/kg, Max (N=3)): 236 ng·days/mL
- AUC0-t ([5]; single IM 10 mg/kg, Mean (N=3)): 198 ng·days/mL
- AUC0-∞ ([5]; single IM 10 mg/kg, Mean (N=3)): 212 ng·days/mL
- AUC0-t [5, 19]: 212 ng·days/mL
- AUC0-∞ [5, 19]: 235 ng·days/mL
- AUC0-t ([5]; single IM 10 mg/kg, Min (N=3)): 157 ng·days/mL
- AUC0-∞ ([5]; single IM 10 mg/kg, Min (N=3)): 166 ng·days/mL
- AUC0-t [5, 20]: 225 ng·days/mL and 157 ng·days/mL and 212 ng·days/mL
- AUC0-∞ [5, 20]: 235 ng·days/mL and 166 ng·days/mL and 236 ng·days/mL
- AUC0-t [5, 21]: 330 ng·days/mL
- AUC0-∞ [5, 21]: 347 ng·days/mL
- AUC0-t ([5]; single IM 30 mg/kg, Max (N=3)): 449 ng·days/mL
- AUC0-∞ ([5]; single IM 30 mg/kg, Max (N=3)): 492 ng·days/mL
- AUC0-t ([5]; single IM 30 mg/kg, Mean (N=3)): 338 ng·days/mL
- AUC0-∞ ([5]; single IM 30 mg/kg, Mean (N=3)): 358 ng·days/mL
- AUC0-t [5, 22]: 285 ng·days/mL
- AUC0-∞ [5, 22]: 293 ng·days/mL
- AUC0-t ([5]; single IM 30 mg/kg, Min (N=3)): 281 ng·days/mL
- AUC0-∞ ([5]; single IM 30 mg/kg, Min (N=3)): 290 ng·days/mL
- AUC0-t [5, 23]: 281 ng·days/mL and 285 ng·days/mL and 449 ng·days/mL
- AUC0-∞ [5, 23]: 293 ng·days/mL and 290 ng·days/mL and 492 ng·days/mL
- AUC0-t ([5]; single IM 100 mg/kg, Max (N=3)): 1760 ng·days/mL
- AUC0-∞ ([5]; single IM 100 mg/kg, Max (N=3)): 1770 ng·days/mL
- AUC0-t [5, 24]: 1410 ng·days/mL
- AUC0-∞ [5, 24]: 1430 ng·days/mL
- AUC0-t [5, 25]: 1270 ng·days/mL
- AUC0-∞ [5, 25]: 1330 ng·days/mL
- AUC0-t ([5]; single IM 100 mg/kg, Min (N=3)): 1200 ng·days/mL
- AUC0-∞ ([5]; single IM 100 mg/kg, Min (N=3)): 1200 ng·days/mL
- AUC0-t [5, 26]: 1270 ng·days/mL and 1200 ng·days/mL and 1760 ng·days/mL
- AUC0-∞ [5, 26]: 1330 ng·days/mL and 1200 ng·days/mL and 1770 ng·days/mL

SMILES: CC(C)CCC(=O)O[C@H]1CC[C@@]2(C)C(=CC[C@@H]3[C@@H]2CC[C@]2(C)C(c4cccnc4)=CC[C@@H]32)C1 [Abiraterone Isocaproate, Abiraterone isocaproate]
- Cmax [6]: 0.106 µg/mL

SMILES: CC(=O)O[C@H]1CC[C@@]2(C)C(=CC[C@@H]3[C@@H]2CC[C@]2(C)C(c4cccnc4)=CC[C@@H]32)C1 [Abiraterone acetate, (3β)-17-(3-Pyridyl)androsta-5, acetate]
- Tmax [7]: 8.00 h
- AUClast ([7]; 35 mg/kg): 0.934 µg·h/mL
- Cmax ([7]; 35 mg/kg): 0.0216 µg/mL
- Tmax ([7]; 35 mg/kg): 39.2 h
- injection site tolerability [8]: irritating to the dogs at the injection site
- AUCINF ([8]; iv, 10 mg/kg): 5.99 µg·h/mL
- AUCINF/Dose ([8]; iv, 10 mg/kg): 599
- AUClast ([8]; iv, 10 mg/kg): 5.92 µg·h/mL
- AUClast/Dose ([8]; iv, 10 mg/kg): 592
- time out to which blood levels were measurable ([8]; male): 504 h

SMILES: C[C@]12CC[C@H](O)CC1=CC[C@@H]1[C@@H]2CC[C@]2(C)C(c3cccnc3)=CC[C@@H]12 [Abiraterone, (3β)-17-(pyridin-3-yl)androsta-5,16-dien-3-ol]
- t1/2 (absorption half-life), predicted in man [9]: 325 h
- AUCINF [6]: 275 ng·days/mL
- AUClast [6]: 266 ng·days/mL
- t1/2 [6]: 223 h
- bioavailability ([1]; im, absolute bioavailability for abiraterone): 72%
- AUC(0-inf) ([1]; im, mean abiraterone AUCINF after IM, corrected for dose and time units): 0.104 µg·h/mL
- half-life ([1]; 1 mg/kg, mean t1/2): 2.1 h
- half-life [10]: 325 h
- half-life [11]: 319 h
- half-life [12]: 325 h
- AUC(0-inf) ([4]; im, 60 mg/kg, mean abiraterone AUCINF after IM, corrected for dose and time units, 60 mg/kg IM administration (abiraterone decanoate)): 0.0704 µg·h/mL
- AUC(0-inf) ([4]; im, 60 mg/kg, mean abiraterone AUCINF after IM, corrected for dose and time units, 60 mg/kg IM administration of abiraterone isocaproate): 0.114 µg·h/mL
- bioavailability ([4]; im, 77 mg/kg): 87%
- half-life ([4]; im, 77 mg/kg, t1/2, dogs (N=3), Group 2: IM 77 mg/kg abiraterone isocaproate, 158 mg/ml in 90% corn oil/10% benzyl alcohol, plasma analyte = label, mean): 223 h
- bioavailability ([4]; im, 87 mg/kg): 42%
- AUC(0-inf) ([4]; iv, 0.78 mg/kg, mean abiraterone AUCINF after IV, corrected for dose, IV abiraterone isocaproate (0.78 mg/kg as abiraterone)): 0.131 µg·h/mL
- F ([13]; Rats, IM bioavailability of abiraterone from abiraterone decanoate, deconvolution): 19%
- Vd ([13]; rat, plasma, iv, […]): 22.3 L/kg
- clearance ([13]; rat, plasma, iv, […]): 11.4 L/h/kg
- F ([14]; Dogs, IM bioavailability of abiraterone from abiraterone decanoate, deconvolution): 56%
- Vd ([14]; dog, plasma, iv, […]): 14.2 L/kg
- clearance ([14]; dog, plasma, iv, […]): 6.47 L/h/kg
- F ([15]; Monkeys, IM bioavailability of abiraterone from abiraterone decanoate, deconvolution): 14%
- Vd ([15]; monkey, plasma, iv, […]): 5.73 L/kg
- clearance ([15]; monkey, plasma, iv, […]): 2.58 L/h/kg
- Vss, predicted in man ([16]; allometric scaling from rats, dogs and monkeys): 437 L
- K01, predicted in man ([16]; from deconvolution of animal IM/IV data): 0.00213 h⁻¹
- F, predicted in man ([16]; value of dogs used): 56%
- Cmax [17, 27]: 0.0133 µg/mL
- Cmax [17, 28]: 0.00143 µg/mL
- Tmax [17, 27]: 2.6 h
- Tmax [17, 28]: 1.67 h
